Measured values published in article PMC8422859, “A Novel Oral Arginase 1/2 Inhibitor Enhances the Antitumor Effect of PD-1 Inhibition in Murine Experimental Gliomas by Altering the Immunosuppressive Environment” (Frontiers in Oncology, 2021).

Tests used:
[1] = molecular target: T1, recombinant human ARG1 (Homo sapiens, UniProt P05089); test: Recombinant arginase activity assay, hARG1; format: biochemical; settings: 1 h at 37°C, pH 7.4, 10 mM L-arginine, urea detection; read-out: Inhibition of recombinant hARG1: IC50
T1 construct: made in house; host or cells: E. coli
T1 sequence (P05089 1-322): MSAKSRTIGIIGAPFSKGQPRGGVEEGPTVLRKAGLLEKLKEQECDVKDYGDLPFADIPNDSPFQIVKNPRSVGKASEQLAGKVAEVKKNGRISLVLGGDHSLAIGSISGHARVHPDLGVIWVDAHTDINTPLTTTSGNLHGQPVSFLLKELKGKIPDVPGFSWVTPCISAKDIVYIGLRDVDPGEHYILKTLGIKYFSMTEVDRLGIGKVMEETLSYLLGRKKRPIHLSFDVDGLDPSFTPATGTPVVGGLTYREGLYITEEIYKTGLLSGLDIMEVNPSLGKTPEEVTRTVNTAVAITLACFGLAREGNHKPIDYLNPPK
Method: (§1) The inhibitory activity towards hARG1 and hARG2 enzymes was assessed using recombinant enzymes biosynthesized using a prokaryotic expression system (E. coli) and purified by fast protein liquid chromatography (FPLC). Briefly, recombinant enzymes were incubated with the tested compounds for 1 h at 37°C in the reaction buffer (100 mM sodium phosphate buffer, 130 mM NaCl, 1 mg/mL BSA, pH 7.4) containing substrate (10 mM L-arginine hydrochloride) and cofactor (200 µM MnCl2). The assay is based on the detection of urea, which is generated during the conversion of L-arginine into L-ornithine catalyzed by arginases. To visualize the product, we adding a mixture of reagent A (4 mM oPA, 50 mM boric acid, 1 M sulfuric acid, 0.03% Brij-35) and reagent B (4 mM NED, 50 mM boric acid, 1 M sulfuric acid, 0.03% Brij-35) in equal proportions. The absorbance was measured at 515 nm. The urea production in the absence of any tested compound was considered as maximal enzyme activity. The absorbance in the absence of arginase (background) was considered as zero activity. Two reference compounds OAT-81 (ABH, no. 222638-65-5) and OAT-90 (2-amino-6-borono-2-(2-(3-(2,4-dichlorophenyl)propyloamino)ethyl) hexanoic acid, and two novel inhibitors OAT-1617 and OAT-1746 (the last three synthesized at OncoArendi Therapeutics) were tested. Normalized values were analyzed using GraphPad Prism 7.0 software and the IC50 values were determined.

[2] = molecular target: T2, recombinant human ARG2 (Homo sapiens, UniProt P78540); test: Recombinant arginase activity assay, hARG2; format: biochemical; settings: 1 h at 37°C, pH 7.4, 10 mM L-arginine, urea detection; read-out: Inhibition of recombinant hARG2: IC50
T2 construct: made in house; host or cells: E. coli
T2 sequence (P78540 23-354): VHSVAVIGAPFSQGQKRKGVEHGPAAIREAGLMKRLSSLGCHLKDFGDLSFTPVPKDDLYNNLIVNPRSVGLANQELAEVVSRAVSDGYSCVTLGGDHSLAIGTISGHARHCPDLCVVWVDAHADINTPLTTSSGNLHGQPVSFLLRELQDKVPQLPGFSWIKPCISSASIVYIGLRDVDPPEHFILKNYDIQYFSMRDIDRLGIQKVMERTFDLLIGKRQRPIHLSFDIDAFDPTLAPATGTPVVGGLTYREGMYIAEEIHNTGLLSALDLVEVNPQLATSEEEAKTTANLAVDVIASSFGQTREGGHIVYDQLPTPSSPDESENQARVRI
Method: as §1

[3] = test system: U87-MG glioma cells; test: Matrigel invasion assay, U87-MG co-cultured with BV2 microglia; format: cell-based, human
Method: (§2) BV2 cells were plated onto a 24-well plate at the density of 4×10^4. After 24 h, the invasion assay was performed with tissue culture inserts (6.5 mm Transwell® with 8.0 µm Pore Polycarbonate Membrane Insert, Corning, NY, USA) coated with the Growth Factor Reduced Matrigel™ Matrix (BD Biosciences, San Diego. CA, USA). The Matrigel™ Matrix (50 µL of 1 mg/mL stock solution diluted in fresh DMEM) was dried under sterile conditions (37°C) for 5–6 h. The medium in BV2 cultures was replaced with fresh one 1 h before seeding glioblastoma cells onto the inserts, then LN18 and U87 glioblastoma cells were seeded at 2×10^4/insert on Matrigel-covered membranes in a serum-reduced medium (2% FBS). Untreated glioblastoma cells co-cultured with or without BV2 cells served as positive and negative controls, respectively. Cells were treated with the arginase-1 inhibitors OAT-90, OAT-1617 and OAT-1746 solved in PBS. The cultures were kept in incubator at 37°C with humidified air containing 5% CO2. After 18 h cells were fixed in ice-cold methanol and cell nuclei stained with DAPI (4′,6-Diamidino-2-Phenylindole; 1 µg/mL, Sigma). The membranes from Transwell® inserts were cut out and images were acquired using a fluorescence microscope (Leica DM4000B, 10x lens) from the 5 independent fields (bottom; top; left; right side and the middle). Numbers of invading cells were counted using the ImageJ software (NIH, Bethesda, MD, USA). All experiments were performed three times, in duplicates.

[4] = test system: LN18 glioma cells; test: Matrigel invasion assay, LN18 co-cultured with BV2 microglia; format: cell-based, human; settings: 11 µM, co-culture with BV2, 18 h
Method: as §2, with “After 18 h cells were fixed in ice-cold methanol and cell nuclei stained with DAPI (4′,6-Diamidino-2-Phenylindole; 1 µg/mL, Sigma).” left out, “All experiments were performed three times, in duplicates.” left out

[5] = test system: T cell proliferation; parameters: method as in PMID 29254508; settings: cited from earlier work
[6] = test system: CT26, LLC, B16, and 4T1 tumors; parameters: method as in PMID 29254508; settings: B16, 4T1; cited from earlier work

| Structure (SMILES) | IC50 [1] [µM] | IC50 [2] [µM] | microglia-induced invasion of U87-MG cells ([3]; 11 µM, co-culture with BV2, 18 h) | concentration dependence of the inhibitory effect on glioma invasion ([3]; 0.1 and 11 µM, U87-MG with BV2) | microglia-induced invasion of LN18 cells [4] | myeloid cell-mediated suppression of T cell proliferation in vitro [5] | tumor growth in mouse models of non-CNS tumors [6] |
| --- | --- | --- | --- | --- | --- | --- | --- |
| N[C@@H](CCCCB(O)O)C(=O)O [Ref.comp. 1, ABH] | 1.08 | 2.67 | – | – | – | – | – |
| NC(CCCCB(O)O)(CCNCCCc1ccc(Cl)cc1Cl)C(=O)O (stereo not drawn) [OAT-90, 2-amino-6-borono-2-(2-(3-(2,4-dichlorophenyl)propyloamino)ethyl) hexanoic acid, reference compound] | 0.151 | 0.796 | effectively reduced glioma invasion | this dependence was not observed | effectively reduced glioma invasion | – | – |
| C[C@H](N)C(=O)N1C[C@H](CCCB(O)O)[C@](N)(C(=O)O)C1 [CB-1158] | – | – | – | – | – | blocked | reduced tumor growth |
